# Legend:
# Type in all cases: cell-based
# Botrytis cinerea = test: Fungal growth assay against Botrytis cinerea (Example B-1 a)
# Excerpt: (§1) A synergistic effect exists whenever the action of an active ingredient combination is greater than the sum of the actions of the individual components.
# (§2) The action to be expected E for a given active ingredient combination obeys the so-called COLBY formula and can be calculated as follows (COLBY, S. R. “Calculating synergistic and antagonistic responses of herbicide combination”. Weeds, Vol. 15, pages 20-22; 1967):
# (§3) ppm=milligrams of active ingredient (=a.i.) per liter of spray mixture X=% action by active ingredient A) using p ppm of active ingredient Y=% action by active ingredient B) using q ppm of active ingredient.
# (§4) According to COLBY, the expected (additive) action of active ingredients A)+B) using p+q ppm of active ingredient is
# (§5) If the action actually observed (O) is greater than the expected action (E), then the action of the combination is super-additive, i.e. there is a synergistic effect.
# (§6) Conidia of the fungus from cryogenic storage are directly mixed into nutrient broth (PDB potato dextrose broth). After placing a (DMSO) solution of the test compounds into a microtiter plate (96-well format) the nutrient broth containing the fungal spores is added. The test plates are incubated at 24 C and the inhibition of growth is determined photometrically after 3 days. The fungicide interactions in the combinations are calculated according to the COLBY method. The data generated in this experiment indicate synergy between cyprodinil and dodine and cyprodinil and pyribencarb when used in mixture with one another.
# Pyrenophora teres = test: Fungal growth assay against Pyrenophora teres (Example B-5 a); details: Cyprodinil/Pyribencarb series
# Excerpt: as §1, §2, §3, §4, §5
# as §6, with “The test plates are incubated at 24 C and the inhibition of growth is determined photometrically after 3 days.” left out, “and” for “and dodine and cyprodinil and”
# Fusarium culmorum = test: Fungal growth assay against Fusarium culmorum (Example B-14)
# Excerpt: as §1, §2, §3, §4, §5
# as §6, with “2” for “3”, “dodine, cyprodinil and fluazinam” for “dodine”
# [1] = tested on: Pseudocercosporella herpotrichoides var. acuformis; test: Fungal growth assay against Pseudocercosporella herpotrichoides var. acuformis (Example B-8)
# Excerpt: as §1, §2, §3, §4, §5
# as §6, with “cyprodinil and boscalid, cyprodinil and dodine and” for “cyprodinil and dodine and”
# [2] = 0.008 mg/L alone, Cyprodinil/Pyribencarb series
# [3] = 0.016 mg/L alone, Cyprodinil/Pyribencarb series
# [4] = 0.031 mg/L alone, Cyprodinil/Pyribencarb series
# [5] = 0.125 mg/L alone, Cyprodinil/Pyribencarb series
# [6] = 0.25 mg/L alone, Cyprodinil/Pyribencarb series
# [7] = 0.5 mg/L alone, Cyprodinil/Pyribencarb series
# [8] = 1 mg/L alone, Cyprodinil/Pyribencarb series
# [9] = 0.5 mg/L alone, Cyprodinil/Dodine series
# [10] = 1 mg/L alone, Cyprodinil/Dodine series
# [11] = 2 mg/L alone, Cyprodinil/Dodine series
# [12] = 2 mg/L alone, Cyprodinil/Pyribencarb series
# [13] = 4 mg/L alone, Cyprodinil/Dodine series
# [14] = 4 mg/L alone, Cyprodinil/Pyribencarb series
# [15] = 8 mg/L alone, Cyprodinil/Dodine series
# [16] = 16 mg/L alone, Cyprodinil/Dodine series
# [17] = 0.125 mg/L alone, Cyprodinil/Boscalid series
# [18] = 0.125 mg/L alone, Cyprodinil/Dodine series
# [19] = 0.25 mg/L alone, Cyprodinil/Boscalid series
# [20] = 0.25 mg/L alone, Cyprodinil/Dodine series
# [21] = 0.5 mg/L alone, Cyprodinil/Boscalid series
structure (smiles),measurement,setting,value
COC(=O)NCc1cc(/C(C)=N/OCc2cccc(C)n2)ccc1Cl [Pyribencarb],Observed control in % (% Cobs),Botrytis cinerea; [2],0.4%
same,Observed control in % (% Cobs),Botrytis cinerea; [3],0%
same,Observed control in % (% Cobs),Botrytis cinerea; [4],3.3%
same,Observed control in % (% Cobs),"Botrytis cinerea; 0.063 mg/L alone, Cyprodinil/Pyribencarb series",2.6%
same,Observed control in % (% Cobs),Botrytis cinerea; [5],16.4%
same,Observed control in % (% Cobs),Pyrenophora teres; 0.004 mg/L alone,0%
same,Observed control in % (% Cobs),Pyrenophora teres; 0.008 mg/L alone,0%
same,Observed control in % (% Cobs),Pyrenophora teres; 0.016 mg/L alone,0%
same,Observed control in % (% Cobs),Pyrenophora teres; 0.031 mg/L alone,0%
same,Observed control in % (% Cobs),Pyrenophora teres; 0.063 mg/L alone,17.0%
same,Observed control in % (% Cobs),Fusarium culmorum; [5],0%
same,Observed control in % (% Cobs),Fusarium culmorum; [6],8.7%
same,Observed control in % (% Cobs),Fusarium culmorum; [7],11.5%
same,Observed control in % (% Cobs),Fusarium culmorum; [8],16.2%
same,Observed control in % (% Cobs),[1]; [2],16.2%
same,Observed control in % (% Cobs),[1]; [3],40.1%
same,Observed control in % (% Cobs),[1]; [4],61.1%
"Cc1cc(C2CC2)nc(Nc2ccccc2)n1 [Cyprodinil, (4-cyclopropyl-6-methyl-pyrimidin-2-yl)-phenyl-amine]",Observed control in % (% Cobs),Botrytis cinerea; [5],16.7%
same,Observed control in % (% Cobs),Botrytis cinerea; [6],22.6%
same,Observed control in % (% Cobs),Botrytis cinerea; [9],26.7%
same,Observed control in % (% Cobs),Botrytis cinerea; [7],21.4%
same,Observed control in % (% Cobs),Botrytis cinerea; [10],38.2%
same,Observed control in % (% Cobs),Botrytis cinerea; [8],25.7%
same,Observed control in % (% Cobs),Botrytis cinerea; [11],50.5%
same,Observed control in % (% Cobs),Botrytis cinerea; [12],23.2%
same,Observed control in % (% Cobs),Botrytis cinerea; [13],40.1%
same,Observed control in % (% Cobs),Botrytis cinerea; [14],37.1%
same,Observed control in % (% Cobs),Botrytis cinerea; [15],51.8%
same,Observed control in % (% Cobs),Pyrenophora teres; 0.25 mg/L alone,52.0%
same,Observed control in % (% Cobs),Pyrenophora teres; 0.5 mg/L alone,59.0%
same,Observed control in % (% Cobs),"Fusarium culmorum; 2 mg/L alone, Cyprodinil/Fluazinam series",0%
same,Observed control in % (% Cobs),Fusarium culmorum; [13],0%
same,Observed control in % (% Cobs),"Fusarium culmorum; 4 mg/L alone, Cyprodinil/Fluazinam series",0%
same,Observed control in % (% Cobs),Fusarium culmorum; [15],0%
same,Observed control in % (% Cobs),"Fusarium culmorum; 8 mg/L alone, Cyprodinil/Fluazinam series",0%
same,Observed control in % (% Cobs),"Fusarium culmorum; 8 mg/L alone, Cyprodinil/Pyribencarb series",2.4%
same,Observed control in % (% Cobs),Fusarium culmorum; [16],6.7%
same,Observed control in % (% Cobs),"Fusarium culmorum; 16 mg/L alone, Cyprodinil/Fluazinam series",9.8%
same,Observed control in % (% Cobs),"Fusarium culmorum; 16 mg/L alone, Cyprodinil/Pyribencarb series",8.4%
same,Observed control in % (% Cobs),"Fusarium culmorum; 32 mg/L alone, Cyprodinil/Dodine series",26.9%
same,Observed control in % (% Cobs),"Fusarium culmorum; 32 mg/L alone, Cyprodinil/Fluazinam series",16.4%
same,Observed control in % (% Cobs),"Fusarium culmorum; 32 mg/L alone, Cyprodinil/Pyribencarb series",21.7%
same,Observed control in % (% Cobs),"[1]; 0.0625 mg/L alone, Cyprodinil/Boscalid series",23.5%
same,Observed control in % (% Cobs),[1]; [17],40.7%
same,Observed control in % (% Cobs),[1]; [18],10.9%
same,Observed control in % (% Cobs),[1]; [5],16.6%
same,Observed control in % (% Cobs),[1]; [19],28.9%
same,Observed control in % (% Cobs),[1]; [20],14.8%
same,Observed control in % (% Cobs),[1]; [21],19.6%
same,Observed control in % (% Cobs),[1]; [9],13.7%
same,Observed control in % (% Cobs),[1]; [7],30.1%
same,Observed control in % (% Cobs),"[1]; 1 mg/L alone, Cyprodinil/Boscalid series",17.5%
same,Observed control in % (% Cobs),[1]; [10],17.9%
same,Observed control in % (% Cobs),[1]; [8],19.3%
same,Observed control in % (% Cobs),"[1]; 2 mg/L alone, Cyprodinil/Boscalid series",24.6%
same,Observed control in % (% Cobs),[1]; [11],20.3%
same,Observed control in % (% Cobs),[1]; [12],21.5%
same,Observed control in % (% Cobs),"[1]; 4 mg/L alone, Cyprodinil/Boscalid series",33.6%
same,Observed control in % (% Cobs),[1]; [13],25.9%
same,Observed control in % (% Cobs),[1]; [14],27.2%
same,Observed control in % (% Cobs),[1]; [15],33.6%
same,Observed control in % (% Cobs),[1]; [16],46.2%
CCCCCCCCCCCCNC(=N)N [Dodine],Observed control in % (% Cobs),Botrytis cinerea; [13],0%
same,Observed control in % (% Cobs),Botrytis cinerea; [15],0%
same,Observed control in % (% Cobs),Botrytis cinerea; [16],36.3%
same,Observed control in % (% Cobs),Fusarium culmorum; [15],3.3%
same,Observed control in % (% Cobs),Fusarium culmorum; [16],15.1%
same,Observed control in % (% Cobs),[1]; [18],0%
same,Observed control in % (% Cobs),[1]; [20],0%
same,Observed control in % (% Cobs),[1]; [9],0%
same,Observed control in % (% Cobs),[1]; [10],0%
same,Observed control in % (% Cobs),[1]; [11],1.4%
same,Observed control in % (% Cobs),[1]; [13],31.3%
same,Observed control in % (% Cobs),[1]; [15],70.5%
same,Observed control in % (% Cobs),[1]; [16],72.4%
O=[N+]([O-])c1cc(C(F)(F)F)c(Cl)c([N+](=O)[O-])c1Nc1ncc(C(F)(F)F)cc1Cl [Fluazinam],Observed control in % (% Cobs),"Fusarium culmorum; 0.063 mg/L alone, Cyprodinil/Fluazinam series",5.1%
same,Observed control in % (% Cobs),"Fusarium culmorum; 0.125 mg/L alone, Cyprodinil/Fluazinam series",11.8%
same,Observed control in % (% Cobs),"Fusarium culmorum; 0.25 mg/L alone, Cyprodinil/Fluazinam series",27.4%
same,Observed control in % (% Cobs),"Fusarium culmorum; 0.5 mg/L alone, Cyprodinil/Fluazinam series",35.7%
same,Observed control in % (% Cobs),"Fusarium culmorum; 1 mg/L alone, Cyprodinil/Fluazinam series",72.4%
O=C(Nc1ccccc1-c1ccc(Cl)cc1)c1cccnc1Cl [Boscalid],Observed control in % (% Cobs),"[1]; 0.031 mg/L alone, Cyprodinil/Boscalid series",0%
same,Observed control in % (% Cobs),"[1]; 0.063 mg/L alone, Cyprodinil/Boscalid series",2.5%
same,Observed control in % (% Cobs),[1]; [17],32.8%
same,Observed control in % (% Cobs),[1]; [19],58.4%
same,Observed control in % (% Cobs),[1]; [21],77.1%
